Data set [1] relates to Mus musculus. Put plainly: Anticonvulsant activity in albino mouse assessed as protection against subcutaneous pentylenetetrazole-induced death measured as mortality at 300 mg/kg, ip after 0.5 hr. The class given is functional. To be noted: sc, route intraperitoneal.
The test system of data set [2] is Mus musculus. Put plainly: Anticonvulsant activity in albino mouse assessed as protection against subcutaneous pentylenetetrazole-induced death measured as mortality at 100 mg/kg, ip after 0.5 hr. The class given is functional. To be noted: sc, route intraperitoneal.
The subject of data set [3] is Mus musculus. As to the kind of experiment: Anticonvulsant activity in albino mouse assessed as protection against subcutaneous pentylenetetrazole-induced death measured as mortality at 30 mg/kg, ip after 0.5 hr. Format: functional. To be noted: sc, route intraperitoneal.
Data set [4] has as its system Mus musculus. As to the kind of experiment: Anticonvulsant activity against subcutaneous pentylenetetrazole-induced seizures in albino mouse assessed as seizure at 100 mg/kg, ip after 0.5 hr. The class given is functional. The following applies: route intraperitoneal.
The subject of data set [5] is Mus musculus. Put plainly: Anticonvulsant activity against subcutaneous pentylenetetrazole-induced seizures in albino mouse assessed as onset of seizure time at 300 mg/kg, ip after 0.5 hr. The class given is functional. The following applies: route intraperitoneal.
For data set [6], the system named is Mus musculus. Put plainly: Anticonvulsant activity against subcutaneous pentylenetetrazole-induced seizures in albino mouse assessed as onset of seizure time at 100 mg/kg, ip after 0.5 hr. Format: functional. To be noted: route intraperitoneal.
Data set [7] has as its system Mus musculus. As to the kind of experiment: Anticonvulsant activity against subcutaneous pentylenetetrazole-induced seizures in albino mouse assessed as onset of seizure time at 30 mg/kg, ip after 0.5 hr. Format: functional. To be noted: route intraperitoneal.
Data set [8] has as its system Mus musculus. As to the kind of experiment: Anticonvulsant activity against subcutaneous pentylenetetrazole-induced seizures in albino mouse assessed as duration of seizure time at 300 mg/kg, ip after 0.5 hr. The class given is functional. To be noted: route intraperitoneal.
Data set [9] deals with Mus musculus. As to the kind of experiment: Anticonvulsant activity against subcutaneous pentylenetetrazole-induced seizures in albino mouse assessed as duration of seizure time at 100 mg/kg, ip after 0.5 hr. Format: functional. The following applies: route intraperitoneal.
Data set [10] concerns Mus musculus. Put plainly: Anticonvulsant activity against subcutaneous pentylenetetrazole-induced seizures in albino mouse assessed as duration of seizure time at 30 mg/kg, ip after 0.5 hr. Format: functional. The following applies: route intraperitoneal.
A short description of data set [11]: Neurotoxicity in ip dosed albino mouse measured after 30 mins by rotarod method. The class given is toxicity, organism-based. The following applies: in vivo. In general terms: In the rotarod test animals must keep their balance on a rotating rod.
Data set [12] relates to Mus musculus. As to the kind of experiment: Protective index, ratio of TD50 for neurotoxicity in ip dosed albino mouse to ED50 for anticonvulsant activity in ip dosed albino mouse. Format: functional.
The subject of data set [13] is Mus musculus. As to the kind of experiment: Anticonvulsant activity in ip dosed albino mouse assessed as protection against maximal electroshock-induced seizures after 0.5 hr. Format: functional. Background: In the maximal electroshock model the usual endpoint is tonic extension of the hind limbs.
The subject of data set [14] is Mus musculus. Put plainly: Anticonvulsant activity against maximal electroshock-induced seizure in albino mouse assessed as seizures at 300 mg/kg, ip after 0.5 hr. The class given is functional. To be noted: route intraperitoneal.
The test system of data set [15] is Mus musculus. As to the kind of experiment: Anticonvulsant activity against maximal electroshock-induced seizures in albino mouse assessed as seizure at 100 mg/kg, ip after 0.5 hr. The class given is functional. To be noted: route intraperitoneal.
For data set [16], the system named is Mus musculus. As to the kind of experiment: Anticonvulsant activity against maximal electroshock-induced seizures in albino mouse assessed as seizure at 30 mg/kg, ip after 0.5 hr. The class given is functional. The following applies: route intraperitoneal.

Usually mortality stands for the percentage killed. Usually TD50 stands for the 50% point of the dose-response relation for the toxic effect studied. For orientation: ED50 means the dose that gives a 50% effect, or the effect in half of the subjects. For the compound `COc1ccc(N2C(=O)c3ccccc3C2=O)cc1`, in the data set on Mus musculus [1], the mortality at 300 mg/kg stood at 0%. Besides, in the data set with Mus musculus [2], the mortality at 100 mg/kg is 100%. For the same compound, the mortality at 30 mg/kg in the data set on Mus musculus [3] is 100%. The Activity in the data set on Mus musculus [4] is reported as 100%; with Mus musculus [14], 0%; in the data set with Mus musculus [15], 25%; in the data set on Mus musculus [16] it was 25%. For the same compound, the Time is 13.5 min with Mus musculus [5]; 5.25 min in the data set on Mus musculus [6]; 3 min in the data set with Mus musculus [7]; 23.75 min with Mus musculus [8]; 22.25 min in the data set on Mus musculus [9]; 11.75 min in the data set on Mus musculus [10]. For the same compound, the TD50 at 0.5 h in data set [11] came to 89.3 mg/kg. Also, in the data set on Mus musculus [12], the “Ratio TD50/ED50” value stood at 5.91. For the same compound, the ED50 in the data set on Mus musculus [13] stood at 15.1 mg/kg.
For `O=C1c2ccccc2C(=O)N1c1ccc([N+](=O)[O-])cc1`, in the data set on Mus musculus [1], the mortality at 300 mg/kg turned out to be 75%. For the same compound, the mortality at 100 mg/kg with Mus musculus [2] was 75%. Besides, in the data set with Mus musculus [3], the mortality at 30 mg/kg was determined as 75%. Further, the Activity is listed as 100% with Mus musculus [4], 25% with Mus musculus [14], 25% in the data set on Mus musculus [15] and 100% with Mus musculus [16]. For the same compound, the Time is listed as 6.25 min in the data set with Mus musculus [5]; 4 min in the data set on Mus musculus [6]; 3.5 min in the data set with Mus musculus [7]; 15.5 min in the data set on Mus musculus [8]; 11.75 min with Mus musculus [9]; 5.75 min in the data set on Mus musculus [10]. This compound also displayed a TD50 at 0.5 h in [11] of 176 mg/kg. Also, the “Ratio TD50/ED50” value in the data set on Mus musculus [12] is given as 2.81. In addition, the ED50 in the data set on Mus musculus [13] stood at 62.3 mg/kg.
Turning to `O=C1c2ccccc2C(=O)N1c1cccc(Cl)c1`, in the data set with Mus musculus [1], the mortality at 300 mg/kg was 25%. The mortality at 100 mg/kg with Mus musculus [2] was 75%. The mortality at 30 mg/kg in the data set with Mus musculus [3] was found to be 100%. In addition, the Activity in the data set with Mus musculus [4] amounted to 100%; with Mus musculus [14], 25%; in the data set with Mus musculus [15], 100%; in the data set with Mus musculus [16] it was 100%. Moreover, the Time in the data set with Mus musculus [5] came to 4.75 min; in the data set with Mus musculus [6] it was 3.75 min; in the data set on Mus musculus [7], 3.5 min; in the data set with Mus musculus [8], 9 min; in the data set with Mus musculus [9] it was 7 min; in the data set with Mus musculus [10], 11.25 min. In [11], this compound registered a TD50 at 0.5 h of 300 mg/kg. Moreover, the “Ratio TD50/ED50” value with Mus musculus [12] was determined as 1.57. Besides, in the data set with Mus musculus [13], the ED50 is 190 mg/kg.
Turning to `O=C1c2ccccc2C(=O)N1c1cccc(F)c1`, the mortality at 300 mg/kg in the data set on Mus musculus [1] came out at 75%. Further, the mortality at 100 mg/kg with Mus musculus [2] was determined as 100%. In the data set with Mus musculus [3], the mortality at 30 mg/kg turned out to be 100%. For the same compound, the Activity with Mus musculus [4] is recorded as 100%; with Mus musculus [14], 25%; in the data set with Mus musculus [15] it was 0%; in the data set with Mus musculus [16] it was 100%. Besides, the Time came to 4.75 min with Mus musculus [5]; 4 min in the data set on Mus musculus [6]; 5 min with Mus musculus [7]; 14 min with Mus musculus [8]; 11 min with Mus musculus [9]; 10.5 min in the data set on Mus musculus [10]. In [11], this compound yielded a TD50 at 0.5 h of 31.7 mg/kg. Also, the “Ratio TD50/ED50” value in the data set with Mus musculus [12] came out at 0.79. Further, the ED50 in the data set on Mus musculus [13] is 39.7 mg/kg.
On to `O=C1c2ccccc2C(=O)N1c1cccc([N+](=O)[O-])c1`, for which the mortality at 300 mg/kg in the data set on Mus musculus [1] was found to be 75%. Also, the mortality at 100 mg/kg with Mus musculus [2] amounted to 100%. In addition, the mortality at 30 mg/kg in the data set with Mus musculus [3] came to 100%. Moreover, the Activity in the data set on Mus musculus [4] is given as 100%; in the data set on Mus musculus [14], 25%; in the data set on Mus musculus [15] it was 75%; with Mus musculus [16], 100%. For the same compound, the Time was 10.5 min with Mus musculus [5]; 4.5 min with Mus musculus [6]; 3.5 min in the data set with Mus musculus [7]; 18.25 min with Mus musculus [8]; 16.5 min in the data set on Mus musculus [9]; 6 min in the data set with Mus musculus [10]. The same compound yielded a TD50 at 0.5 h in data set [11] of 74.2 mg/kg. In addition, the “Ratio TD50/ED50” value in the data set with Mus musculus [12] amounted to 0.42. Further, the ED50 in the data set on Mus musculus [13] came to 174 mg/kg.
In the case of `COc1ccccc1N1C(=O)c2ccccc2C1=O`, the mortality at 300 mg/kg in the data set with Mus musculus [1] came to 75%. Further, in the data set with Mus musculus [2], the mortality at 100 mg/kg amounted to 100%. Moreover, the mortality at 30 mg/kg with Mus musculus [3] came to 100%. Also, the Activity came out at 100% with Mus musculus [4], 25% in the data set on Mus musculus [14], 100% with Mus musculus [15] and 100% in the data set with Mus musculus [16]. The Time in the data set with Mus musculus [5] is 7.25 min; in the data set on Mus musculus [6], 5.75 min; with Mus musculus [7], 2.75 min; with Mus musculus [8], 13.5 min; with Mus musculus [9], 9.75 min; in the data set with Mus musculus [10], 9.75 min. Also, in [11], the TD50 at 0.5 h is 222 mg/kg. The “Ratio TD50/ED50” value in the data set with Mus musculus [12] amounted to 1.14. For the same compound, the ED50 in the data set with Mus musculus [13] was 195 mg/kg.
Regarding `O=C1c2ccccc2C(=O)N1c1ccc(Cl)cc1`, the mortality at 300 mg/kg with Mus musculus [1] is 75%. The mortality at 100 mg/kg in the data set on Mus musculus [2] came to 75%. The mortality at 30 mg/kg in the data set with Mus musculus [3] is 100%. The Activity in the data set on Mus musculus [4] is 100%; with Mus musculus [14] it was 25%; with Mus musculus [15], 25%; in the data set on Mus musculus [16], 75%. For the same compound, the Time in the data set with Mus musculus [5] is reported as 8.25 min; in the data set on Mus musculus [6], 3.25 min; in the data set with Mus musculus [7], 3 min; in the data set on Mus musculus [8] it was 19.25 min; with Mus musculus [9], 12.75 min; in the data set on Mus musculus [10], 10.5 min. Further, in [11], the TD50 at 0.5 h is greater than 300 mg/kg. In addition, in the data set on Mus musculus [12], the “Ratio TD50/ED50” value was greater than 5.54. Also, the ED50 in the data set with Mus musculus [13] is 55 mg/kg.
As for `O=C1c2ccccc2C(=O)N1c1ccccc1[N+](=O)[O-]`, the mortality at 300 mg/kg in the data set with Mus musculus [1] came to 75%. The mortality at 100 mg/kg with Mus musculus [2] was 0%. Besides, in the data set with Mus musculus [3], the mortality at 30 mg/kg was determined as 100%. Besides, the Activity in the data set with Mus musculus [4] is 100%; in the data set with Mus musculus [14] it was 0%; in the data set on Mus musculus [15] it was 25%; in the data set with Mus musculus [16] it was 75%. The Time with Mus musculus [5] is 8.75 min; in the data set on Mus musculus [6], 7.5 min; with Mus musculus [7], 2 min; in the data set with Mus musculus [8], 18 min; in the data set on Mus musculus [9], 22.5 min; with Mus musculus [10] it was 7 min. In addition, the TD50 at 0.5 h in data set [11] was greater than 300 mg/kg. Besides, the “Ratio TD50/ED50” value in the data set on Mus musculus [12] is recorded as greater than 5.6. The ED50 with Mus musculus [13] is 53.5 mg/kg.
